# US12685312B2, “Sulfonamide apyrase inhibitors” (Texas Crop Science, Inc., priority 2022, dated 2026)
# Test system: plant pathogenic fungi (Zymoseptoria tritici strains, Microdochium nivale)
# Assay: In vitro combination assay (Method 2), overall comparison with Roux Compound 13
# Assay type: cell-based
# Details: azoxystrobin, fluxapyroxad, desthio prothioconazole; three fungal strains
# Procedure: Method 2: In Vitro Assessment of Combination Activity
# Selected compounds were assessed in combination with fungicides against a range of commercially important plant pathogenic fungi.
# The test was conducted as follows. A fungicide was applied to a fungal plant pathogen at a rate slightly below that at which it gave any control, in combination with a suitable dose of the test compound. The test compound was recorded as active if control of the pathogen was observed.
# In more detail, the test was conducted as follows. For each combination of fungicide, pathogen and test compound, the following wells were used. Well 1 contained a fungal pathogen growing on agar, and a fungicide at a rate just below that at which it gave any control of the pathogen. Well 2 was the same as Well 1, except that the test compound was also added at Rate 1. Well 3 was the same as Well 2, except that the test compound was added at Rate 2, where Rate 2 was higher than Rate 1. Finally, as a benchmark, Well 4 was the same as Well 1, except that it contained the fungicide at a higher rate, at which it gave partial control of the pathogen. Each of the Wells 1 to 4 were run in duplicate, giving a total of 8 wells for each combination of fungicide, pathogen and test compound. For each well, after a suitable period of incubation, a visual assessment of the % control of the pathogen by the fungicide was made.
# The following fungicides were used in this assay: azoxystrobin, fluxapyroxad, and desthio prothioconazole. The following fungal pathogens were used in this assay: First, a strain of Zymoseptoria tritici with a reduced susceptibility to strobilurin fungicides; second a strain of Zymoseptoria tritici with a reduced susceptibility to SDHI fungicides (i.e., those that inhibit succinate dehydrogenase); and third, Microdochium nivale.
row,SMILES,enhancer activity in the combination assay compared with Roux Compound 13
1,"COc1cc(Cl)c(C)cc1NC(=O)c1ccccc1S(=O)(=O)N(C)c1ccccc1 [I-807, N-(4-chloro-2-methoxy-5-methylphenyl)-2-(N-methyl-N-phenylsulfamoyl)benzamide]",superior enhancer activity than Roux Compound 13
2,"Cc1ccccc1NS(=O)(=O)c1cc(C(=O)Nc2cccc([N+](=O)[O-])c2)ccc1Cl [I-2, 4-chloro-N-(3-nitrophenyl)-3-(N-(o-tolyl)sulfamoyl)benzamide]",superior enhancer activity than Roux Compound 13
3,"COC(=O)c1ccc(NC(=O)c2ccccc2S(=O)(=O)N(C)c2ccccc2)cc1 [I-233, methyl 4-(2-(N-methyl-N-phenylsulfamoyl)benzamido)benzoate]",superior enhancer activity than Roux Compound 13
4,"Cc1cc(NC(=O)c2cccc(NS(=O)(=O)c3ccc(F)c(F)c3)c2)ccc1Br [I-191, N-(4-bromo-3-methylphenyl)-3-((3,4-difluorophenyl)sulfonamido)benzamide]",superior enhancer activity than Roux Compound 13
5,"O=C(Nc1cccc(S(=O)(=O)Nc2ccc(Br)cc2)c1)C1CCCCC1 [I-219, N-(3-(N-(4-bromophenyl)sulfamoyl)phenyl) cyclohexanecarboxamide]",superior enhancer activity than Roux Compound 13

# Test system: apyrase
# Assay: Screen for apyrase inhibitors (Method 1, in vitro phosphate-release absorbance assay)
# Assay type: biochemical
# Details: inhibitor conc at 1 mM stock, 1 hr room temperature, absorbance 630 nm; rounded average of two assay results
# Procedure, shortened: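 Phosphate-release colorimetric assay (Windsor method) in 60 mM Hepes, 3 mM MgCl2, 3 mM CaCl2, 3 mM ATP, pH 6.5, with compound or DMSO control added. Released phosphate developed with ammonium molybdate and ascorbic acid/TCA, then stopped with citrate/acetic acid.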
row,% Inhibition of Apyrase,SMILES
1,82%,"COc1cc(Cl)c(C)cc1NC(=O)c1ccccc1S(=O)(=O)N(C)c1ccccc1 [I-807, N-(4-chloro-2-methoxy-5-methylphenyl)-2-(N-methyl-N-phenylsulfamoyl)benzamide]"
2,77%,"Cc1ccccc1NS(=O)(=O)c1cc(C(=O)Nc2cccc([N+](=O)[O-])c2)ccc1Cl [I-2, 4-chloro-N-(3-nitrophenyl)-3-(N-(o-tolyl)sulfamoyl)benzamide]"
3,61%,"COC(=O)c1ccc(NC(=O)c2ccccc2S(=O)(=O)N(C)c2ccccc2)cc1 [I-233, methyl 4-(2-(N-methyl-N-phenylsulfamoyl)benzamido)benzoate]"
4,76%,"Cc1cc(NC(=O)c2cccc(NS(=O)(=O)c3ccc(F)c(F)c3)c2)ccc1Br [I-191, N-(4-bromo-3-methylphenyl)-3-((3,4-difluorophenyl)sulfonamido)benzamide]"
5,73%,"O=C(Nc1cccc(S(=O)(=O)Nc2ccc(Br)cc2)c1)C1CCCCC1 [I-219, N-(3-(N-(4-bromophenyl)sulfamoyl)phenyl) cyclohexanecarboxamide]"
6,53%,"COc1ccc(NS(=O)(=O)c2ccc(NC(=O)c3cccc(S(=O)(=O)N(C)C)c3)cc2)cc1 [I-991, 3-(N,N-dimethylsulfamoyl)-N-(4-(N-(4-methoxyphenyl)sulfamoyl)phenyl)benzamide]"
7,51%,"CCc1cccc(NC(=O)c2ccc(S(=O)(=O)Nc3ccc(Cl)cc3)cc2)c1 [I-395, 4-(N-(4-chlorophenyl)sulfamoyl)-N-(3-ethylphenyl)benzamide]"
8,55%,"O=C(c1ccc(NS(=O)(=O)c2ccc(Cl)c([N+](=O)[O-])c2)cc1)N1CCCc2ccccc21 [I-930, 4-chloro-3-nitro-N-(4-(1,2,3,4-tetrahydroquinoline-1-carbonyl)phenyl)benzenesulfonamide]"
9,55%,"Cc1ccc(C)c(S(=O)(=O)Nc2ccc(C(=O)Nc3ccc4c(c3)OCO4)cc2)c1 [I-929, N-(benzo[d][1,3]dioxol-5-yl)-4-((2,5-dimethylphenyl)sulfonamido)benzamide]"
10,7%,"Cc1ccc(C)c(S(=O)(=O)Nc2cccc(C(=O)Nc3cnccn3)c2)c1 [I-669, 3-((2,5-dimethylphenyl)sulfonamido)-N-(pyrazin-2-yl)benzamide]"
11,56%,"CCOc1ccc(NS(=O)(=O)c2ccc(NC(=O)c3cccc(OC(F)F)c3)cc2)cc1 [I-986, 3-(difluoromethoxy)-N-(4-(N-(4-ethoxyphenyl)sulfamoyl)phenyl)benzamide]"
12,6%,"O=C(Nc1cccc(S(=O)(=O)Nc2ccc(SC(F)F)cc2)c1)c1ccco1 [I-772, N-(3-(N-(4-((difluoromethyl)thio)phenyl)sulfamoyl)phenyl) furan-2-carboxamide]"
13,53%,"Cc1ccc(S(C)(=O)=O)cc1C(=O)Nc1cccc(NS(=O)(=O)c2ccc(Cl)cc2)c1 [I-346, N-(3-((4-chlorophenyl)sulfonamido)phenyl)-2-methyl-5-(methylsulfonyl)benzamide]"
14,57%,"O=C(Nc1cc2c(cc1Cl)OCO2)c1ccc(Cl)c(S(=O)(=O)N2CCc3ccccc32)c1 [I-496, 4-chloro-N-(6-chlorobenzo[d][1,3]dioxol-5-yl)-3-(indolin-1-ylsulfonyl)benzamide]"
15,67%,"CC(=O)c1cccc(S(=O)(=O)Nc2cccc(C(=O)Nc3cccc(C(F)(F)F)c3)c2)c1 [I-319, 3-((3-acetylphenyl)sulfonamido)-N-(3-(trifluoromethyl)phenyl)benzamide]"
16,1%,"O=C(Nc1ccccn1)c1cccc(S(=O)(=O)Nc2cccc(Cl)c2)c1 [I-615, 3-(N-(3-chlorophenyl)sulfamoyl)-N-(pyridin-2-yl)benzamide]"
17,54%,"Cc1ccc(NC(=O)c2cccc(NS(=O)(=O)c3ccc(Br)cc3)c2)nc1 [I-646, 3-((4-bromophenyl)sulfonamido)-N-(5-methylpyridin-2-yl)benzamide]"
18,44%,"O=C(Nc1ccc(SC(F)F)cc1)c1ccccc1S(=O)(=O)N1CCCCC1 [I-353, N-(4-((difluoromethyl)thio)phenyl)-2-(piperidin-1-ylsulfonyl)benzamide]"

row,% Inhibition of Apyrase,SMILES
1,62%,"COc1cccc(S(=O)(=O)Nc2ccc(C(=O)Nc3ccc4c(c3)OCCO4)cc2)c1 [I-903, N-(2,3-dihydrobenzo[b][1,4]dioxin-6-yl)-4-((3-methoxyphenyl)sulfonamido)benzamide]"
2,30%,"O=C(Nc1cccc(S(=O)(=O)Nc2ccccc2Cl)c1)c1cnc(Cl)c(Cl)c1 [I-756, 5,6-dichloro-N-(3-(N-(2-chlorophenyl)sulfamoyl)phenyl)nicotinamide]"
3,81%,"Cc1ccc(C(=O)Nc2cccc(NS(=O)(=O)c3ccccc3)c2)cc1C [I-184, 3,4-dimethyl-N-(3-(phenylsulfonamido)phenyl)benzamide]"
4,47%,"O=C(Nc1ccc(S(=O)(=O)Nc2ccccc2Cl)cc1)c1ccc2c(c1)OCCO2 [I-994, N-(4-(N-(2-chlorophenyl)sulfamoyl)phenyl)-2,3-dihydrobenzo[b][1,4]dioxine-6-carboxamide]"
5,58%,"C=CCN(c1ccc(Cl)cc1)S(=O)(=O)c1ccc(Cl)c(C(=O)N2CCc3ccccc32)c1 [I-486, N-allyl-4-chloro-N-(4-chlorophenyl)-3-(indoline-1-carbonyl)benzenesulfonamide]"
6,55%,"Cc1cc(C)cc(NC(=O)c2ccc(NS(=O)(=O)c3ccc(F)c(Cl)c3)cc2)c1 [I-931, 4-((3-chloro-4-fluorophenyl)sulfonamido)-N-(3,5-dimethylphenyl)benzamide]"
7,73%,"O=C(Nc1cccc([N+](=O)[O-])c1)c1cccc(S(=O)(=O)Nc2cc(C(F)(F)F)ccc2Cl)c1 [I-3, 3-(N-(2-chloro-5-(trifluoromethyl)phenyl)sulfamoyl)-N-(3-nitrophenyl)benzamide]"
8,52%,"O=C(c1cc(S(=O)(=O)Nc2ccc(Cl)cc2)ccc1Cl)N1CCCc2ccccc21 [I-559, 4-chloro-N-(4-chlorophenyl)-3-(1,2,3,4-tetrahydroquinoline-1-carbonyl)benzenesulfonamide]"
9,11%,"N#Cc1cccc(NC(=O)c2ccc(NS(=O)(=O)c3ccc4c(c3)OCCO4)cc2)c1 [I-962, N-(3-cyanophenyl)-4-((2,3-dihydrobenzo[b][1,4]dioxine)-6-sulfonamido)benzamide]"
10,41%,"Cc1nc2ccc(NC(=O)c3cccc(S(=O)(=O)N4CCc5ccccc54)c3)cc2s1 [I-592, 3-(indolin-1-ylsulfonyl)-N-(2-methylbenzo[d]thiazol-6-yl)benzamide]"
11,57%,"COC(=O)C1(c2ccc(Br)cc2)CCN(C(=O)c2cccc(S(=O)(=O)Nc3ccc(Br)cc3)c2)C1 (stereo not shown) [I-269, methyl 3-(4-bromophenyl)-1-(3-(N-(4-bromophenyl)sulfamoyl)benzoyl)pyrrolidine-3-carboxylate]"
12,3%,"CN(c1ccccc1)S(=O)(=O)c1cccc(NC(=O)c2cc(C3CC3)on2)c1 [I-773, 5-cyclopropyl-N-(3-(N-methyl-N-phenylsulfamoyl)phenyl)isoxazole-3-carboxamide]"
13,45%,"O=C(Nc1ccc(Br)cc1)c1cccc(S(=O)(=O)Nc2ccc(Br)cc2)c1 [I-20, N-(4-bromophenyl)-3-(N-(4-bromophenyl)sulfamoyl)benzamide]"
14,58%,"CN(c1ccccc1)S(=O)(=O)c1cccc(NC(=O)c2ccsc2)c1 [I-716, N-(3-(N-methyl-N-phenylsulfamoyl)phenyl)thiophene-3-carboxamide]"
15,52%,"O=C(Nc1ccc2c(c1)OCO2)c1ccc(NS(=O)(=O)c2ccc(Br)cc2)cc1 [I-935, N-(benzo[d][1,3]dioxol-5-yl)-4-((4-bromophenyl)sulfonamido)benzamide]"
16,39%,"O=C(Nc1cccc(N2CCCC2=O)c1)c1ccc(NS(=O)(=O)c2ccccc2)cc1 [I-950, N-(3-(2-oxopyrrolidin-1-yl)phenyl)-4-(phenylsulfonamido)benzamide]"
17,6%,"COc1ccc(NS(=O)(=O)c2cccc(NC(=O)c3cccs3)c2)cc1 [I-771, N-(3-(N-(4-methoxyphenyl)sulfamoyl)phenyl)thiophene-2-carboxamide]"
